In one assay the target is T1, MAT2A homodimer (Homo sapiens, UniProt P31153).
T1 construct: inferred from Ni sepharose purification with imidazole elution; made in house; host or cells: Sf9 insect cells, baculovirus (Bac to Bac, pFASTBAC1)
Briefly: MAT2A inhibition (biochemical, liberated phosphate, PiColorLock Gold). The conditions noted are these: recombinant MAT2A homodimer; IC50 bin with Max Inh.; read-out: Enzyme Inhibition Bin. The gist of the method: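 Baculovirus/Sf9-expressed, Ni-purified MAT2A (4 μg/mL) preincubated with compound 60 min at 25 °C in Tris pH 8.0/KCl/MgCl2 buffer. Reaction started with 500 μM ATP and 400 μM L-methionine (substrate-mix concentrations), run 60 min at 25 °C. Phosphate measured colorimetrically against a phosphate standard curve to give IC50.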

Assay [1] relates to SAM in HCT116 human colon carcinoma cell line with MTAP gene deleted (MTAP −/−). As to the kind of experiment: Cellular assay of target engagement (SAM), LC-MS/MS, 72 hrs. It is filed as cell-based. The conditions noted are these: HCT-116, IC50 bin with Max Inh., read-out: Cell 72 h SAM Inhibition (MTAP −/−). The gist of the method: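 MTAP-deleted HCT116 cells plated 24 h, then given 10-point 3-fold dilutions for 72 hrs at 37° C. Intracellular SAM extracted in cold 80% methanol with 1M acetic acid and d3-SAM standard, quantified by LC-MS/MS (MRM m/z 399.2→250.1); IC50 derived.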

For another assay, the system named is HCT116 MTAP−/−. As to the kind of experiment: Inhibition of cellular proliferation, 4 days, Cell Titer Glo, HCT116 MTAP−/−. The conditions noted are these: Homo sapiens, HCT-116, 96 h, IC50 bin with Max Inh., read-out: 4 Day Relative Growth Inhibition (MTAP −/−). It is filed as cell-based. The method in brief: (§1)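 Isogenic HCT116 pair differing only in MTAP status, plated 24 h before treatment with 10-point 3-fold dilutions; 4 days at 37° C./5% CO2. Cell Titer Glo luminescence, blank-subtracted and normalised to 0.2% DMSO control, gives percentage proliferation vs log molar concentration for IC50.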

Another assay concerns HCT116 MTAP+/+. As to the kind of experiment: Inhibition of cellular proliferation, 4 days, Cell Titer Glo, HCT116 MTAP+/+. The format is cell-based. The conditions noted are these: Homo sapiens, HCT-116, 96 h, IC50 bin with Max Inh., read-out: 4 Day Relative Growth Inhibition (MTAP +/+). The method in brief:
as §1

T1 sequence (P31153 whole entry): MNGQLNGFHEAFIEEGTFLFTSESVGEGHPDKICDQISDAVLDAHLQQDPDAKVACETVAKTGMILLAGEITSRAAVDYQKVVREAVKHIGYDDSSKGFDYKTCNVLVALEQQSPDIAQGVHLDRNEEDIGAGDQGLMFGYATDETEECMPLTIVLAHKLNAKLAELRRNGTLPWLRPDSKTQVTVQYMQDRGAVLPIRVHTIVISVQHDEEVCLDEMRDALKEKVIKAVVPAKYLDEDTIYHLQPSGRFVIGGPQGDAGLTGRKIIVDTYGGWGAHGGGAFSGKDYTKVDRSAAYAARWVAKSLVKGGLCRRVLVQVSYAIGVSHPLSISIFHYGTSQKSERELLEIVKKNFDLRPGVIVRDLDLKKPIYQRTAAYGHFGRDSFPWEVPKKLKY

As to `Cc1nc2ccc(-n3nc4c(C#N)cn(CC5CC5)c4c(-c4ccc(C(F)F)nc4)c3=O)cc2n1C` [Example 147, 5-(cyclopropylmethyl)-4-(6-(difluoromethyl)pyridin-3-yl)-2-(1,2-dimethyl-1H-benzo[d]imidazol-6-yl)-3-oxo-3,5-dihydro-2H-pyrrolo[3,2-c]pyridazine-7-carbonitrile], the IC50 at MAT2A homodimer was under 0.1 µM; in assay [1], under 0.1 µM; with HCT116 MTAP−/−, under 0.1 µM; with HCT116 MTAP+/+, 0.1 to 1 µM.
For `Cn1cc2cc(-n3nc4nnn(CC5CC5)c4c(-c4ccc(OC(F)F)cc4)c3=O)ccc2n1` [Example 208, 1-(cyclopropylmethyl)-7-(4-(difluoromethoxy)phenyl)-5-(2-methyl-2H-indazol-5-yl)-1,5-dihydro-6H-[1,2,3]triazolo[4,5-c]pyridazin-6-one], the IC50 at MAT2A homodimer was under 0.1 µM; in assay [1], under 0.1 µM; in the assay with HCT116 MTAP−/−, 0.1 to 1 µM; in the assay with HCT116 MTAP+/+, 0.1 to 1 µM.
Turning to `Cn1cc2cc(-n3nc4c(c(-c5ccc(Cl)cc5)c3=O)n(CC3CC3)c(=O)n4C)ccc2n1` [Example 199, 4-(4-chlorophenyl)-5-(cyclopropylmethyl)-7-methyl-2-(2-methyl-2H-indazol-5-yl)-2,7-dihydro-3H-imidazo[4,5-c]pyridazine-3,6(5H)-dione], the IC50 was under 0.1 µM at MAT2A homodimer, under 0.1 µM in assay [1], under 0.1 µM in the assay on HCT116 MTAP−/− and over 1 µM with HCT116 MTAP+/+.
As for `[2H]C([2H])([2H])Oc1ccc(-c2c(=O)n(-c3ccc4nn(C)cc4c3)nc3c(C(=O)NC)cn(CC4CC4)c23)cc1` [Example 174, 5-(cyclopropylmethyl)-4-(4-(methoxy-d3)phenyl)-N-methyl-2-(2-methyl-2H-indazol-5-yl)-3-oxo-3,5-dihydro-2H-pyrrolo[3,2-c]pyridazine-7-carboxamide], the IC50 was under 0.1 µM on MAT2A homodimer, under 0.1 µM in assay [1], under 0.1 µM in the assay on HCT116 MTAP−/− and 0.1 to 1 µM in the assay with HCT116 MTAP+/+.
Turning to `Cn1cc2cc(-n3nc4c(C#C[Si](C)(C)C)cn(CC5CC5)c4c(-c4ccc(C5CC5)nc4)c3=O)ccc2n1` [Example 243, 5-(cyclopropylmethyl)-4-(6-cyclopropylpyridin-3-yl)-2-(2-methyl-2H-indazol-5-yl)-7-((trimethylsilyl)ethynyl)-2,5-dihydro-3H-pyrrolo[3,2-c]pyridazin-3-one], the IC50 at MAT2A homodimer was under 0.1 µM; in assay [1], under 0.1 µM; with HCT116 MTAP−/− it was under 0.1 µM; in the assay with HCT116 MTAP+/+ it was over 1 µM.
In the case of `Cn1cc2cc(-n3nc4[nH]c(=O)n(CC5CC5)c4c(-c4ccc(C5CC5)cc4)c3=O)ccc2n1` [Example 204, 5-(cyclopropylmethyl)-4-(4-cyclopropylphenyl)-2-(2-methyl-2H-indazol-5-yl)-2,7-dihydro-3H-imidazo[4,5-c]pyridazine-3,6(5H)-dione], the IC50 was under 0.1 µM on MAT2A homodimer, under 0.1 µM in assay [1], under 0.1 µM in the assay on HCT116 MTAP−/− and over 1 µM with HCT116 MTAP+/+.
With `[2H]C([2H])([2H])Oc1ccc(-n2nc3ccn(CC4CC4)c3c(-c3ccc(C4CC4)nc3)c2=O)cc1` [Example 122, 5-(cyclopropylmethyl)-4-(6-cyclopropylpyridin-3-yl)-2-(4-(methoxy-d3)phenyl)-2,5-dihydro-3H-pyrrolo[3,2-c]pyridazin-3-one], the IC50 at MAT2A homodimer is under 0.1 µM; in assay [1], under 0.1 µM; in the assay with HCT116 MTAP−/−, under 0.1 µM; in the assay on HCT116 MTAP+/+, over 1 µM.
As to `Cn1cc2cc(-n3nc4c(C#CC(F)(F)F)cn(CC5CC5)c4c(-c4ccc(C5CC5)nc4)c3=O)ccc2n1` [Example 245, 5-(cyclopropylmethyl)-4-(6-cyclopropylpyridin-3-yl)-2-(2-methyl-2H-indazol-5-yl)-7-(3,3,3-trifluoroprop-1-yn-1-yl)-2,5-dihydro-3H-pyrrolo[3,2-c]pyridazin-3-one], the IC50 at MAT2A homodimer is under 0.1 µM; in assay [1], over 1 µM; in the assay on HCT116 MTAP−/−, 0.1 to 1 µM; in the assay on HCT116 MTAP+/+, over 1 µM.
Turning to `Cc1ccc(-c2c(=O)n(-c3ccc4nc(C)n(C)c4c3)nc3c(C#N)cn(CC4CC4)c23)cn1` [Example 151, 5-(cyclopropylmethyl)-2-(1,2-dimethyl-1H-benzo[d]imidazol-6-yl)-4-(6-methylpyridin-3-yl)-3-oxo-3,5-dihydro-2H-pyrrolo[3,2-c]pyridazine-7-carbonitrile], the IC50 at MAT2A homodimer was under 0.1 µM; in assay [1], under 0.1 µM; in the assay on HCT116 MTAP−/−, under 0.1 µM; with HCT116 MTAP+/+, over 1 µM.
`Cc1ccc(-c2c(=O)n(-c3ccc4nn(C)cc4c3)nc3c(C(N)=O)cn(CC4CC4)c23)cn1` [Example 175, 5-(cyclopropylmethyl)-2-(2-methyl-2H-indazol-5-yl)-4-(6-methylpyridin-3-yl)-3-oxo-3,5-dihydro-2H-pyrrolo[3,2-c]pyridazine-7-carboxamide]: the IC50 at MAT2A homodimer was under 0.1 µM; in assay [1], 0.1 to 1 µM; in the assay with HCT116 MTAP−/− it was 0.1 to 1 µM; in the assay on HCT116 MTAP+/+ it was over 1 µM.
As for `Cn1cc2cc(-n3nc4c(c(-c5ccc(C6CC6)cc5)c3=O)n(CC3CC3)c(=O)n4C)ccc2n1` [Example 200, 5-(cyclopropylmethyl)-4-(4-cyclopropylphenyl)-7-methyl-2-(2-methyl-2H-indazol-5-yl)-2,7-dihydro-3H-imidazo[4,5-c]pyridazine-3,6(5H)-dione], the IC50 at MAT2A homodimer is under 0.1 µM; in assay [1], under 0.1 µM; in the assay on HCT116 MTAP−/− it was under 0.1 µM; in the assay with HCT116 MTAP+/+ it was 0.1 to 1 µM.
As to `CNC(=O)c1cn(CC2CC2)c2c(-c3ccc(OC)cc3)c(=O)n(-c3ccc4nn(C)cc4c3)nc12` [Example 176, 5-(cyclopropylmethyl)-4-(4-methoxyphenyl)-N-methyl-2-(2-methyl-2H-indazol-5-yl)-3-oxo-3,5-dihydro-2H-pyrrolo[3,2-c]pyridazine-7-carboxamide], the IC50 at MAT2A homodimer is under 0.1 µM; in assay [1], under 0.1 µM; in the assay on HCT116 MTAP−/−, under 0.1 µM; with HCT116 MTAP+/+, 0.1 to 1 µM.
For the molecule `Cn1cc2cc(-n3nc4c(C#N)cn(CC5CC5)c4c(-c4ccc(C5(C)CC5)nc4)c3=O)ccc2n1` [Example 254, 5-(cyclopropylmethyl)-2-(2-methyl-2H-indazol-5-yl)-4-[6-(1-methylcyclopropyl)pyridin-3-yl]-3-oxo-2H,3H,5H-pyrrolo[3,2-c]pyridazine-7-carbonitrile], the IC50 at MAT2A homodimer is under 0.1 µM; in assay [1], 0.1 to 1 µM; in the assay on HCT116 MTAP−/−, 0.1 to 1 µM; in the assay on HCT116 MTAP+/+, 0.1 to 1 µM.
In the case of `Cn1cc2cc(-n3nc4c(C#N)cn(CC5CC5)c4c(-c4ccc(C#N)cc4)c3=O)ccc2n1` [Example 149, 4-(4-cyanophenyl)-5-(cyclopropylmethyl)-2-(2-methyl-2H-indazol-5-yl)-3-oxo-3,5-dihydro-2H-pyrrolo[3,2-c]pyridazine-7-carbonitrile], the IC50 is under 0.1 µM on MAT2A homodimer, 0.1 to 1 µM in assay [1], 0.1 to 1 µM in the assay on HCT116 MTAP−/− and over 1 µM in the assay on HCT116 MTAP+/+.
As to `Cc1ccc(-c2c(=O)n(-c3ccc4nn(C)cc4c3)nc3c2n(CC2CC2)c(=O)n3C)cn1` [Example 202, 5-(cyclopropylmethyl)-7-methyl-2-(2-methyl-2H-indazol-5-yl)-4-(6-methylpyridin-3-yl)-2,7-dihydro-3H-imidazo[4,5-c]pyridazine-3,6(5H)-dione], the IC50 on MAT2A homodimer was under 0.1 µM; in assay [1], 0.1 to 1 µM; in the assay with HCT116 MTAP−/−, 0.1 to 1 µM; in the assay with HCT116 MTAP+/+ it was 0.1 to 1 µM.
Turning to `CNC(=O)c1cn(CC2CC2)c2c(-c3ccc(OC(F)F)cc3)c(=O)n(-c3ccc4nn(C)cc4c3)nc12` [Example 169, 5-(cyclopropylmethyl)-4-(4-(difluoromethoxy)phenyl)-N-methyl-2-(2-methyl-2H-indazol-5-yl)-3-oxo-3,5-dihydro-2H-pyrrolo[3,2-c]pyridazine-7-carboxamide], the IC50 on MAT2A homodimer is under 0.1 µM; in assay [1], under 0.1 µM; in the assay on HCT116 MTAP−/−, under 0.1 µM; in the assay on HCT116 MTAP+/+, 0.1 to 1 µM.
As to `[2H]C([2H])([2H])Oc1ccc(-c2c(=O)n(-c3ccc4nn(C)cc4c3)nc3[nH]c(=O)n(CC4CC4)c23)cc1` [Example 206, 5-(cyclopropylmethyl)-4-(4-(methoxy-d3)phenyl)-2-(2-methyl-2H-indazol-5-yl)-2,7-dihydro-3H-imidazo[4,5-c]pyridazine-3,6(5H)-dione], the IC50 at MAT2A homodimer is under 0.1 µM; in assay [1] it was under 0.1 µM; in the assay with HCT116 MTAP−/−, 0.1 to 1 µM; with HCT116 MTAP+/+, over 1 µM.
Regarding `CNC(=O)c1cn(CC2CC2)c2c(-c3ccc(C4CC4)nc3)c(=O)n(-c3ccc4nn(C)cc4c3)nc12` [Example 162, 5-(cyclopropylmethyl)-4-(6-cyclopropylpyridin-3-yl)-N-methyl-2-(2-methyl-2H-indazol-5-yl)-3-oxo-2H,3H,5H-pyrrolopyridazine-7-carboxamide], the IC50 at MAT2A homodimer was under 0.1 µM; in assay [1], under 0.1 µM; in the assay with HCT116 MTAP−/−, under 0.1 µM; in the assay on HCT116 MTAP+/+, 0.1 to 1 µM.

For the origin of these results see patent US20220169654A1, “New Organic Compounds” (Servier Pharmaceuticals LLC, priority 2020, published 2022).
